Measurements: patent US4325974A, “β, γ-Dihydropolyprenyl alcohol and hypotensive pharmaceutical composition containing same” (Eisai Co., Ltd., priority 1978, dated 1982)

Experiments:
[1] = test system: spontaneously hypertensive rats (SHR) of Okamoto and Aoki; assay: Hypotensive effect on spontaneously hypertensive rats (blood pressure, tail-cuff method; heart rate, tachometer); assay type: in vivo, rat (SHR of Okamoto and Aoki); conditions: 10 mg/kg oral
Protocol: I. The hypotensive effect of the formula (I) compound, according to the invention, on spontaneously hypertensive rats (hereinafter referred to as SHR) of Okamoto and Aoki:
The hypotensive effects of the test compounds on SHR of Okamoto and Aoki of about 35 weeks age were determined. The systolic blood pressure of the SHR was around 230 mmHg.
The test compounds were given to the SHR orally in the form of a suspension in aqueous acacia solution. The SHR were divided into a test compound group to which a test compound was administered and a control group to which only an aqueous acacia solution (free of test compound) was administered. Each group comprised three SHR.
The blood pressure of the SHR was measured with a Shimazu continuous tonometer SCS-301 (a product of Shimazu Seisakusho Co., Ltd.). Tail artery pressure was indirectly measured by a tail-cuff method.
The blood pressure was measured immediately before the administration and at 2, 4, 6 and 24 hours after the administration to determine the change in blood pressure with the passing of time.
The heart rate was determined by recording the pulse rate at the tail of the SHR with a tachometer of said tonometer […]. Test Compound and Dose
10 mg/kg (body weight of SHR)

[2] = test system: hepatic disease (hepatitis), induced by intraabdominal administration of D-galactosamine; assay: Effect on hepatic disease (hepatitis) induced by intraabdominal administration of D-galactosamine; assay type: in vivo; conditions: SD rats
Protocol: II. The effects of the formula (I) compound, according to the invention, on hepatic disease (hepatitis), induced by intraabdominal administration of D-galactosamine.
SD rats weighing about 250 g were used as test animals. D-Galactosamine hydrochloride (250 mg/kg each administration) and the test compound (50 mg/kg each administration) were administered intraabdominally to the rats on the schedule of experiments set forth below. After completion of the administration, blood was drawn from the test animals. The GPT value and alkali phosphatase value of the blood, which are indexes of the hepatic disease, were determined.
The test compound was used in the form of a suspension in 5% aqueous acacia solution. D-Galactosamine hydrochloride was used in the form of an aqueous solution thereof in distilled water, which solution was adjusted to pH 7 with potassium hydroxide. The rats were divided into three groups, i.e., a test compound group (comprising 9 rats) to which the test compound was administered, a control group (comprising 14 rats) to which 5% aqueous acacia solution free of the test compound was administered and a normal group (comprising 9 rats) to which neither the test compound nor D-galactosamine hydrochloride was administered. [drawing 9]

CC(C)=CCCC(C)=CCCC(C)=CCCC(C)=CCCC(C)=CCCC(C)=CCCC(C)=CCCC(C)=CCCC(C)=CCCC(C)CCO (centres unmarked) [test compound, 3,7, 11, 15, 19, 23, 27, 31, 35, 39-Decamethyl-6, 10, 14, 18, 22, 26, 30, 34, 38-tetracontanonaene-1-ol]
blood pressure two hours after the administration ([1]; 2 h, before administration 227±7 mmHg): 207±9 mmHg
blood pressure six hours after the administration ([1]; 6 h, before administration 227±7 mmHg, control 232±7 mmHg at 6 h): 202±12 mmHg
blood pressure 24 hours after the administration ([1]; 24 h, before administration 227±7 mmHg): 212±9 mmHg
effect on the heart rate ([1]; result in words): No effect on the heart rate was observed
hypotensive effect ([1]; result in words): clear, long-lasting hypotensive effect
effect on hepatic disease induced by D-galactosamine hydrochloride ([2]; 50 mg/kg each intraabdominal, result in words): ameliorated or prevented
Alkali phosphatase value ([2]; test compound 50 mg/kg each and D-galactosamine hydrochloride 250 mg/kg each, intraabdominal, control 70.9 ± 3.9, normal 32.3 ± 2.5): 63.7 ± 4.3 KA-U
GPT Value ([2]; test compound 50 mg/kg each and D-galactosamine hydrochloride 250 mg/kg each, intraabdominal, control 1041.4 ± 200.8, normal 46.5 ± 4.9): 523.3 ± 111.7 Carmen unit
